Source: US10760110B2, “Antibiotic testing and screening system” (priority 2017, dated 2020)
≈ marks a conversion by molar mass, not a printed value. Like-named read-outs stand apart in the source and are kept apart here.

Legend:
Conditions in all cases: Klebsiella pneumoniae
[1] = system: K. pneumoniae NVT1001 and its ΔompK35/36 and/or ΔramR mutants; assay: Etest MIC, OmpK35/36 loss and AcrAB-TolC overexpression (ΔramR) strains (Table 6); assay type: cell-based, Klebsiella pneumoniae
Procedure, shortened: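 Etest MICs against K. pneumoniae NVT1001 and its ΔompK35/36 and/or ΔramR mutants, rounded up to the next two-fold value. For NVT1001 carrying pACYC177-blaOXA-48, ceftazidime and cefotaxime MICs by CLSI broth microdilution, interpreted with CLSI 2017 breakpoints.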

[2] = system: K. pneumoniae NVT1001 ΔramRΔompK35/36 mutant and its revertants; assay: Etest MIC, ΔramRΔompK35/36 mutant and its revertants (Table 7); assay type: cell-based
[3] = system: K. pneumoniae NVT1001 strains with carbapenemase plasmids; assay: Etest MIC of β-lactams, OmpK35/36 loss, ΔramR and/or carbapenemase (Table 9); assay type: cell-based, Klebsiella pneumoniae
Procedure, shortened: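 Etest MICs, with values between standard dilutions rounded up to the next two-fold step, were measured in K. pneumoniae NVT1001 carrying PCR-cloned resistance genes on pACYC177 or pACYC184 plasmids. Interpretation used CLSI 2017 breakpoints, CLSI 2015 for cephalothin and EUCAST 2017 for moxifloxacin. For the blaOXA-48 strain, ceftazidime and cefotaxime were additionally tested by CLSI broth microdilution.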

SMILES: C[C@@H](O)[C@H]1C(=O)N2C(C(=O)O)=C(S[C@@H]3CN[C@H](C(=O)N(C)C)C3)[C@H](C)[C@H]12 [Meropenem]
- MIC ([1]; WT, NVT1001, read-out: MIC): 0.06 µg/mL (≈ 0.156 µM)
- MIC ([1]; Δ35, ΔompK35 mutant): 0.06 µg/mL (≈ 0.156 µM)
- MIC ([1]; Δ35/36, ΔompK35/36 mutant): 0.5 µg/mL (≈ 1.3 µM)
- MIC ([1]; Δ36, ΔompK36 mutant): 0.06 µg/mL (≈ 0.156 µM)
- MIC ([1]; ΔramR mutant): 0.06 µg/mL (≈ 0.156 µM)
- MIC ([1]; ΔramRΔ35, ΔramRΔompK35 mutant): 0.06 µg/mL (≈ 0.156 µM)
- MIC ([1]; ΔramRΔ35/36, ΔramRΔompK35/36 mutant): 2 µg/mL (≈ 5.22 µM)
- MIC ([1]; ΔramRΔ36, ΔramRΔompK36 mutant): 2 µg/mL (≈ 5.22 µM)
- MIC ([2]; ΔramRΔompK35/36::ompK35/36 revertant): 0.06 µg/mL
- MIC ([2]; ΔramRΔompK35/36::ompK35 revertant): 2 µg/mL
- MIC ([2]; ΔramRΔompK35/36::ompK36 revertant): 0.06 µg/mL
- MIC ([2]; ΔramRΔompK35/36::ramR revertant): 0.5 µg/mL
- MIC ([2]; ΔramRΔompK35/36::ramR::ompK35/36 revertant): 0.125 µg/mL
- MIC ([2]; ΔramRΔompK35/36::ramR::ompK35 revertant): 0.125 µg/mL
- MIC ([2]; ΔramRΔompK35/36::ramR::ompK36 revertant): 0.125 µg/mL
- MIC ([2]; ΔramRΔompK35/36 mutant): 2 µg/mL
- MIC ([3]; IMP-8 on pACYC177, WT (NVT1001), read-out: MIC): 2 µg/mL
- MIC ([3]; IMP-8 on pACYC177, Δ35 (ΔompK35 mutant)): 1 µg/mL
- MIC ([3]; IMP-8 on pACYC177, Δ35/36 (ΔompK35/36 mutant)): > 32 µg/mL
- MIC ([3]; IMP-8 on pACYC177, Δ36 (ΔompK36 mutant)): 2 µg/mL
- MIC ([3]; IMP-8 on pACYC177, ΔramR mutant): 2 µg/mL
- MIC ([3]; IMP-8 on pACYC177, ΔramRΔ35 (ΔramRΔompK35 mutant)): 2 µg/mL
- MIC ([3]; IMP-8 on pACYC177, ΔramRΔ35/36 (ΔramRΔompK35/36 mutant)): > 32 µg/mL
- MIC ([3]; IMP-8 on pACYC177, ΔramRΔ36 (ΔramRΔompK36 mutant)): > 32 µg/mL
- MIC ([3]; KPC-2 on pACYC177, WT (NVT1001), read-out: MIC): 32 µg/mL
- MIC ([3]; KPC-2 on pACYC177, Δ35 (ΔompK35 mutant)): > 32 µg/mL
- MIC ([3]; KPC-2 on pACYC177, Δ35/36 (ΔompK35/36 mutant)): > 32 µg/mL
- MIC ([3]; KPC-2 on pACYC177, Δ36 (ΔompK36 mutant)): > 32 µg/mL
- MIC ([3]; KPC-2 on pACYC177, ΔramR mutant): 32 µg/mL
- MIC ([3]; KPC-2 on pACYC177, ΔramRΔ35 (ΔramRΔompK35 mutant)): > 32 µg/mL
- MIC ([3]; KPC-2 on pACYC177, ΔramRΔ35/36 (ΔramRΔompK35/36 mutant)): > 32 µg/mL
- MIC ([3]; KPC-2 on pACYC177, ΔramRΔ36 (ΔramRΔompK36 mutant)): > 32 µg/mL
- MIC ([3]; KPC-3 on pACYC177, WT (NVT1001), read-out: MIC): 16 µg/mL
- MIC ([3]; KPC-3 on pACYC177, Δ35 (ΔompK35 mutant)): 32 µg/mL
- MIC ([3]; KPC-3 on pACYC177, Δ35/36 (ΔompK35/36 mutant)): > 32 µg/mL
- MIC ([3]; KPC-3 on pACYC177, Δ36 (ΔompK36 mutant)): > 32 µg/mL
- MIC ([3]; KPC-3 on pACYC177, ΔramR mutant): 32 µg/mL
- MIC ([3]; KPC-3 on pACYC177, ΔramRΔ35 (ΔramRΔompK35 mutant)): > 32 µg/mL
- MIC ([3]; KPC-3 on pACYC177, ΔramRΔ35/36 (ΔramRΔompK35/36 mutant)): > 32 µg/mL
- MIC ([3]; KPC-3 on pACYC177, ΔramRΔ36 (ΔramRΔompK36 mutant)): > 32 µg/mL
- MIC ([3]; NDM-1 on pACYC177, WT (NVT1001), read-out: MIC): 32 µg/mL
- MIC ([3]; NDM-1 on pACYC177, Δ35 (ΔompK35 mutant)): 32 µg/mL
- MIC ([3]; NDM-1 on pACYC177, Δ35/36 (ΔompK35/36 mutant)): > 32 µg/mL
- MIC ([3]; NDM-1 on pACYC177, Δ36 (ΔompK36 mutant)): > 32 µg/mL
- MIC ([3]; NDM-1 on pACYC177, ΔramR mutant): 32 µg/mL
- MIC ([3]; NDM-1 on pACYC177, ΔramRΔ35 (ΔramRΔompK35 mutant)): 32 µg/mL
- MIC ([3]; NDM-1 on pACYC177, ΔramRΔ35/36 (ΔramRΔompK35/36 mutant)): > 32 µg/mL
- MIC ([3]; NDM-1 on pACYC177, ΔramRΔ36 (ΔramRΔompK36 mutant)): > 32 µg/mL
- MIC ([3]; OXA-48 on pACYC177, WT (NVT1001), read-out: MIC): 2 µg/mL
- MIC ([3]; OXA-48 on pACYC177, Δ35 (ΔompK35 mutant)): 2 µg/mL
- MIC ([3]; OXA-48 on pACYC177, Δ35/36 (ΔompK35/36 mutant)): > 32 µg/mL
- MIC ([3]; OXA-48 on pACYC177, Δ36 (ΔompK36 mutant)): 8 µg/mL
- MIC ([3]; OXA-48 on pACYC177, ΔramR mutant): 2 µg/mL
- MIC ([3]; OXA-48 on pACYC177, ΔramRΔ35 (ΔramRΔompK35 mutant)): 2 µg/mL
- MIC ([3]; OXA-48 on pACYC177, ΔramRΔ35/36 (ΔramRΔompK35/36 mutant)): > 32 µg/mL
- MIC ([3]; OXA-48 on pACYC177, ΔramRΔ36 (ΔramRΔompK36 mutant)): > 32 µg/mL
- MIC ([3]; VIM-1 on pACYC177, WT (NVT1001), read-out: MIC): 16 µg/mL
- MIC ([3]; VIM-1 on pACYC177, Δ35 (ΔompK35 mutant)): > 32 µg/mL
- MIC ([3]; VIM-1 on pACYC177, Δ35/36 (ΔompK35/36 mutant)): > 32 µg/mL
- MIC ([3]; VIM-1 on pACYC177, Δ36 (ΔompK36 mutant)): > 32 µg/mL
- MIC ([3]; VIM-1 on pACYC177, ΔramR mutant): > 32 µg/mL
- MIC ([3]; VIM-1 on pACYC177, ΔramRΔ35 (ΔramRΔompK35 mutant)): 32 µg/mL
- MIC ([3]; VIM-1 on pACYC177, ΔramRΔ35/36 (ΔramRΔompK35/36 mutant)): > 32 µg/mL
- MIC ([3]; VIM-1 on pACYC177, ΔramRΔ36 (ΔramRΔompK36 mutant)): > 32 µg/mL
- MIC ([3]; no supplemental plasmid, WT (NVT1001), read-out: MIC): 0.06 µg/mL
- MIC ([3]; no supplemental plasmid, Δ35 (ΔompK35 mutant)): 0.06 µg/mL
- MIC ([3]; no supplemental plasmid, Δ35/36 (ΔompK35/36 mutant)): 0.5 µg/mL
- MIC ([3]; no supplemental plasmid, Δ36 (ΔompK36 mutant)): 0.06 µg/mL
- MIC ([3]; no supplemental plasmid, ΔramR mutant): 0.06 µg/mL
- MIC ([3]; no supplemental plasmid, ΔramRΔ35 (ΔramRΔompK35 mutant)): 0.06 µg/mL
- MIC ([3]; no supplemental plasmid, ΔramRΔ35/36 (ΔramRΔompK35/36 mutant)): 2 µg/mL
- MIC ([3]; no supplemental plasmid, ΔramRΔ36 (ΔramRΔompK36 mutant)): 2 µg/mL
